Earlier results, collected in patent publication EP1204793B1, “STABLE SILICONE OIL EMULSION COMPOSITION, ARTICLE OF MANUFACTURE, AND METHOD OF FABRIC WRINKLE CONTROL” (THE PROCTER & GAMBLE COMPANY, priority 1999, dated 2001).
Structures can show the parent of a compound that is named as a salt.

Row | SMILES | solubility in water
1 | [H]/N=C(\N/C(=N/[H])NCCCCCCNC(=N)NC(=N)Nc1ccc(Cl)cc1)Nc1ccc(Cl)cc1 [diacetate salt, 1,1'-hexamethylene bis(5-(p-chlorophenyl)biguanide)] | about 1.8%
2 | [H]/N=C(\N/C(=N/[H])NCCCCCCNC(=N)NC(=N)Nc1ccc(Cl)cc1)Nc1ccc(Cl)cc1 [digluconate salt, 1,1'-hexamethylene bis(5-(p-chlorophenyl)biguanide)] | about 70%
